Measurements taken from US7531713B2, “Assay for toxin induced neuronal degeneration and viability in C. elegans” (Vanderbilt University, priority 2001, dated 2009).
“Also recorded” adds a separate entry of the source.

How the values were obtained:
C. elegans DA neurons = assay: 6-OHDA assay: GFP signal in DA neurons of Pdat-1::GFP transgenic worms; assay type: in vivo; details: for Protection against 6-OHDA toxicity (GFP signal in DA neurons): coincubated with 6-OHDA, 10 mM test substance
Method: Synchronized cultures of nematodes were prepared by collecting gravid worms from one or two 100 mm 8P/NA22 plates, washing them 2 times in approximately 10 mls dH2O (2,000 rpm for 2 min), and incubating them in alkaline hypochlorite for 7-10 min. essentially as described (Emmons et al., 1979; Epstein and Shakes, 1995). Following the 17-24 hour incubation in M9 to obtain the synchronized L1's, the worms were washed once in 10 mls dH2O, spread on 8P/NA22 plates and incubated at 24° C. for 25-29 hours. The L3 larvae were collected, washed once or twice in dH2O, and added to the assay mix (to a final OD600 worms of 0.1-0.2) containing 10 mM ascorbic acid containing 10 or 50 mM 6-hydroxydopamine +/−10 mM d-amphetamine or 1 mM imipramine. The assay mix (1-2 mls) was incubated for 1 hour at 24° C., and mixed gently every 15 min. The worms were then washed in 0.5-1 ml dH2O as above and spread on NGM/OP50 plates. The worms were examined and scored 40-80 hours post-6-OHDA exposure on 2% agarose pads, using 2% NaN3 to immobilize them. For electron microscopy, the worms are fixed approximately 60 hours following exposure to 6-OHDA.
Scoring of the CEPs were performed by applying approximately 50-60 worms on the agar pad, and examined under a Zeiss M2 fluorescent dissecting scope. All 4 CEP dendrites were examined in each worm and the GFP fluorescence within the dendrites followed from the nerve ring to the tip of the nose. If any part of the dendrite was absent, the worm was considered to have altered CEPs. The DA neurons were examined in living animals using a Zeiss Axioskop with a planApo 40 and 63× objective and a Zeiss LSM410 confocal laser-scanning microscope.
Briefly, the worms are exposed to the neurotoxin (or any other candidate substance) dissolved in a liquid suspension prior to being replated on a solid plate.
Exposure to toxins is carried out by transferring the worms to a solution of water containing 10 mM Ascorbic Acid and 10-50 mM 6OHDA in a final volume of 600 μl. The worms are incubated for 1 hour at 22-24° C. with mixing in silica coated tubes. The exposing is stopped by dilution with 1 ml of water. The tube is then pulsed at 2000 rpm for 2 minutes, resuspended in water and the worms are spread on N6M plates ([…]) coated with OP50 E. coli, which the worms feed on.

ASI chemosensory neurons = assay: 6-OHDA exposure of ASI chemosensory neurons with or without transferred DAT-1; assay type: in vivo, C. elegans
Excerpt: FIGS. 6A, 6B, 6C & 6D. Transfer of the DAT gene product sensitizes non-DA neurons to 6-OHDA. (FIG. 6A), ASI chemosensory neurons made transgenic for a PDAF-7::GFP reporter to reveal these cells and their processes. (FIG. 6B), Worms in FIG. 6A treated with 6-OHDA. […] (FIG. 6C), A transgenic line where PDAF7::DAT1:GFP translational fusion is expressed in the ASI neurons, brining DAT-protein to these cells. (FIG. 6D), Animals in C, exposed to 6-OHDA.

CeDAT = biological target: T1, CeDAT (Caenorhabditis elegans, UniProt Q03614); details: mammalian cells expressing CeDAT, cited from earlier work; for Sensitivity of CeDAT-mediated DA transport to antagonists/substrates: potencies comparable to human DAT
T1 sequence (Q03614 1-615): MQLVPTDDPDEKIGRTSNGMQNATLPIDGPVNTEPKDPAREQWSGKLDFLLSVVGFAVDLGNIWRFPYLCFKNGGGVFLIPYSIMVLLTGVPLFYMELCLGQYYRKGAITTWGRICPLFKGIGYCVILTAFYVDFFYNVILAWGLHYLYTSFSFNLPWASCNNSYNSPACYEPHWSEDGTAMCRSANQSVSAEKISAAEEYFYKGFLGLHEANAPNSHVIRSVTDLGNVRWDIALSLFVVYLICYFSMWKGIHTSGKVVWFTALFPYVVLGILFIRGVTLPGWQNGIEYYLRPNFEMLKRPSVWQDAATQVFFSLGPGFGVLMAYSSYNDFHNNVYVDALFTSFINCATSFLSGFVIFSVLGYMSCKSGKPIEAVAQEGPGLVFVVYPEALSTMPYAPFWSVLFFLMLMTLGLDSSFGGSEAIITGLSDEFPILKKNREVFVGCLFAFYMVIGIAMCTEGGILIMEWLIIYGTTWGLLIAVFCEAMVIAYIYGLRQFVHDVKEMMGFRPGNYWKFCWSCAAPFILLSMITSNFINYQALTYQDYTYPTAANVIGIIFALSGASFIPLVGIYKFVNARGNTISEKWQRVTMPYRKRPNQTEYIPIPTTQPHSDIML

In the case of `NCCc1cc(O)c(O)cc1O` [6-OHDA, 6-hydroxydopamine], the “Effect of 6-OHDA on GFP signal in DA neurons” value (C. elegans DA neurons; 10 mM 6-OHDA for 1 hr, visualized 72 hrs later via confocal microscopy) is reported as “various stages of apparent degeneration are evident”, the “Effect of 6-OHDA on DA neurons / reporter expression” value (C. elegans DA neurons; 10-50 mM 6-OHDA, 1 hour exposure, general statements) is reported as “selectively degraded; also recorded: loss of reporter expression” and the “Neuronal sensitivity to 6-OHDA as a function of time of exposure, dat-1 deletion strain” value (C. elegans DA neurons; dat-1 mutant line (FIG. 5E)) is reported as “protected”. For the same compound, the “Effect of 6-OHDA on GFP signal in dat-1 deleted strain” value (C. elegans DA neurons; reporter transgenic line produced in a dat-1 deleted strain (FIG. 5D)) was “failure of toxin to effect loss of GFP signal”, the “Neuronal sensitivity to 6-OHDA as a function of time of exposure” value (C. elegans DA neurons; wildtype reporter line, CEP neurons (FIG. 5E)) was “time dependent loss of CEP neurons” and the “Effect of 6-OHDA on ASI neurons expressing DAT-1” value (ASI chemosensory neurons; PDAF7::DAT1:GFP translational fusion line (FIG. 6D)) was “conferred 6-OHDA sensitivity”. The “Effect of 6-OHDA on ASI neurons lacking DAT-1” value (ASI chemosensory neurons; PDAF-7::GFP reporter line (FIG. 6B)) was “little or no effect”.

In the case of `CN(C)CCCN1c2ccccc2CCc2ccccc21` [imipramine], the “Protection against 6-OHDA toxicity (GFP signal in DA neurons)” value (C. elegans DA neurons) is listed as “prevents visible evidence of 6-OHDA toxicity” and the “Sensitivity of CeDAT-mediated DA transport to antagonists/substrates” value (from here on “Sensitivity … to antagonists/substrates”) (CeDAT) is listed as “inhibited”.

In the case of `NCCc1ccc(O)c(O)c1` [DA, Dopamine], the Km (CeDAT; read-out: Km of Na+- and Cl--dependent DA transport) is given as 1.2 µM.

In the case of `C[C@H](N)Cc1ccccc1` [amphetamine, d-amphetamine], the “Protection against 6-OHDA toxicity (GFP signal in DA neurons)” value (C. elegans DA neurons) is given as “prevents visible evidence of 6-OHDA toxicity” and the “Sensitivity … to antagonists/substrates” value (CeDAT) is given as “sensitive”.

In the case of `CNCCC(Oc1ccccc1OC)c1ccccc1` (stereo not shown) [nisoxetine], the “Sensitivity … to antagonists/substrates” value (CeDAT) is listed as “inhibited”.
